Measured values as given in patent US20230390274A1 (EPIRIUM BIO INC., priority 2020, published 2023).
pIC50: −log10 of the molar value. Where two headings read alike, the source gives them in different places.

Target: 15-PGDH/HPGD (Homo sapiens (Human), UniProt P15428)
Assay: hPGDH inhibitor screening biochemical assay
Description: A hydroxyprostaglandin dehydrogenase inhibition screening biochemical assay can be performed to assess the synthesized inhibitors provided herein. Provided herein is an exemplary biochemical assay for hPGDH inhibitor screening.
The in vitro biochemical assay can be performed in white, 384 plates in total 20 μl reaction volume consisting of 10 nM of 15-PGDH/HPGD (R&D System #5660-DH), 15 μM Prostaglandin E2 (Sigma, Cat #P5640-10MG) and 0.25 mM β-Nicotinamide adenine dinucleotide sodium salt (Sigma, Cat #N0632-5G) made in reaction buffer (50 mM Tris-HCl, pH 7.5, 0.01% Tween 20) at 10-point dose response curve for test/tool compounds. Briefly, 5 μl (4×) of compounds solution and 5 μl (final concentration, 10 nM) of enzyme solution is added to white 384 well plates and incubated for 10 mins at 37° C. 5 μl (4×) of Prostaglandin E2 and 5 μl (4×) of β-Nicotinamide adenine dinucleotide sodium salt is added to the wells and incubated for 10 mins at rt. Fluorescence is recorded at ex/em=340 nm/485 nm. The percentage (%) inhibition of enzyme activity was determined relative to […] (1% DMSO) and IC50 was calculated using GraphPad prism software (four parameter-variable slope equation).

[1] = Table 1, PGDH inhibitors with a 6-5 ring core, read-out: hPGDH: IC50
[2] = Table 2, PGDH inhibitors with a phenyl core, read-out: hPGDH: IC50
[3] = 10 nM 15-PGDH/HPGD, 15 μM PGE2, 0.25 mM NAD, read-out: hPGDH: Average IC50

Sequence of 15-PGDH/HPGD (P15428 whole entry): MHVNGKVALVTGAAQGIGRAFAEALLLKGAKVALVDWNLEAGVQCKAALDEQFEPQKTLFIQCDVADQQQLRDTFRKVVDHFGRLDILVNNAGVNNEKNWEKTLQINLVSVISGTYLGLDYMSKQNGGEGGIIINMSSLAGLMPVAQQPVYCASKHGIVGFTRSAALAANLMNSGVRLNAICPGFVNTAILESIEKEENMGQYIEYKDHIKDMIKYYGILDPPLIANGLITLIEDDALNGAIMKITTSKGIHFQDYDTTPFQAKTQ

Row | pIC50 [3] | SMILES | other results
1 | – | O=C(c1ccc2c(c1)ncn2-c1cccc(Cl)c1)N1CCC(F)C1 (stereo not shown) | pIC50 [1]: 6.80
2 | – | O=C(c1ccc2c(c1)ncn2-c1cccc(Cl)c1)N1CCCC1 | pIC50 [1]: 6.56
3 | – | NC(=O)Cc1nc2cc(C(=O)N3CCCCC3)ccc2n1-c1cccc(Cl)c1 | pIC50 [1]: 6.24
4 | – | O=C(c1ccc2c(c1)ncn2-c1cccc(Cl)c1)N1CC2CC2C1 (stereo not shown) | pIC50 [1]: 6.93
5 | – | COc1ccc(-n2c(C3CC3)nc3cc(C(=O)N4CCCCC4)ccc32)cc1 | pIC50 [1]: 6.71
6 | – | COc1cccc(C(=O)Nc2ccc(C(=O)N3CCCCC3)cc2)c1 | pIC50 [2]: 6.87
7 | – | O=C(Nc1ccc(C(=O)N2CCCCC2)cc1)c1ccccc1Cl | pIC50 [2]: 6.56
8 | – | COc1ccccc1NC(=O)c1ccc(C(=O)N2CCCCC2)cc1 | pIC50 [2]: 6.23
9 | > 7.00 | N#Cc1ccc(-n2ccc3cc(C(=O)N4CC[C@H](F)C4)cnc32)cc1 (single isomer, unassigned) [A-340] | –
10 | > 7.00 | N#Cc1ccc(-n2ccc3cc(C(=O)N4CC[C@@H](F)C4)cnc32)cc1 (single isomer, unassigned) [A-341] | –
11 | > 7.00 | O=C(c1ccc2c(c1)ncn2-c1cccc(Cl)c1)N1CC2CCCC2C1 (stereo not shown) [A-1] | –
12 | > 7.00 | O=C(c1ccc2c(c1)ncn2-c1cccc(Cl)c1)N1CCCCCC1 [A-2] | –
13 | > 7.00 | O=C(c1ccc2c(c1)ncn2-c1cccc(Cl)c1)N1CC2CCC(C2)C1 [A-4] | –
14 | > 7.00 | O=C(c1ccc2c(c1)ncn2-c1cccc(Cl)c1)N1CC2(CCC2)C1 [A-5] | –
15 | > 7.00 | O=C(c1ccc2c(c1)ncn2-c1cccc(Cl)c1)N1CCCCC1 [A-6] | –
16 | > 7.00 | O=C(c1ccc2c(c1)ncn2-c1cccc(Cl)c1)N1CCC(F)(F)CC1 [A-8] | –
17 | ≤ 6.00 | O=C(c1ccc2c(c1)ncn2-c1cccc(Cl)c1)N1CCC(F)(F)C1 [A-10] | –
18 | > 7.00 | O=C(c1ccc2c(c1)ncn2-c1cccc(Cl)c1)N1CCC(Cl)C1 (stereo not shown) [A-12] | –
19 | ≤ 6.00 | O=C(c1ccc2c(c1)ncn2-c1cccc(Cl)c1)N1CCC(O)C1 (stereo not shown) [A-13] | –
20 | ≤ 6.00 | O=C(Nc1ccccc1)c1ccc2c(c1)ncn2-c1cccc(Cl)c1 [A-16] | –
21 | > 7.00 | O=C(c1ccc2c(c1)ncn2-c1cccc(Cl)c1)N1CC(F)C1 [A-20] | –
22 | > 7.00 | O=C(c1ccc2c(c1)ncn2-c1cccc(Cl)c1)N1CC(Cl)C1 [A-21] | –
23 | ≤ 6.00 | CN(C(=O)c1ccc2c(c1)ncn2-c1cccc(Cl)c1)C1CC1 [A-23, 1-(3-chlorophenyl)-N-cyclopropyl-N-methyl-1H-benzo[d]imidazole-5-carboxamide] | –
24 | ≤ 6.00 | O=C1CCN(C(=O)c2ccc3c(c2)ncn3-c2cccc(Cl)c2)C1 [A-24, 1-(1-(3-chlorophenyl)-1H-benzo[d]imidazole-5-carbonyl)pyrrolidin-3-one] | –
25 | > 7.00 | CCOC(=O)c1nc2cc(C(=O)N3CCCCC3)ccc2n1-c1cccc(Cl)c1 [A-26] | –
26 | > 7.00 | CCOC(=O)Cc1nc2cc(C(=O)N3CCCCC3)ccc2n1-c1cccc(Cl)c1 [A-27] | –
27 | > 7.00 | Cc1nc2cc(C(=O)N3CCCCC3)ccc2n1-c1cccc(Cl)c1 [A-28] | –

Row | pIC50 [3] | SMILES | other results
28 | > 7.00 | CCOC(=O)CCc1nc2cc(C(=O)N3CCCCC3)ccc2n1-c1cccc(Cl)c1 [A-29] | –
29 | > 7.00 | O=C(O)CCc1nc2cc(C(=O)N3CCCCC3)ccc2n1-c1cccc(Cl)c1 [A-30] | –
30 | > 7.00 | NC(=O)CCc1nc2cc(C(=O)N3CCCCC3)ccc2n1-c1cccc(Cl)c1 [A-31] | –
31 | > 7.00 | COc1ccc(-n2cnc3cc(C(=O)N4CCCCC4)ccc32)cc1 [A-32] | –
32 | > 7.00 | COc1ccc(-n2cnc3cc(C(=O)N4CCC(F)CC4)ccc32)cc1 [A-33] | –
33 | > 7.00 | COc1ccc(-n2cnc3cc(C(=O)N4CCCCC4)ccc32)nc1 [A-35] | –
34 | > 7.00 | COc1ccc(-n2cnc3cc(C(=O)N4CCCCC4)ccc32)cc1Cl [A-36, (1-(3-chloro-4-methoxyphenyl)-1H-benzo[d]imidazol-5-yl)(piperidin-1-yl)methanone] | –
35 | > 7.00 | O=C(c1ccc2c(c1)ncn2-c1ccc2c(c1)OCO2)N1CCCCC1 [A-37] | –
36 | > 7.00 | COc1ccc(-n2cnc3cc(C(=O)N4CCC(F)CC4)ccc32)nc1 [A-38] | –
37 | > 7.00 | O=C(c1ccc2c(c1)ncn2-c1ccc(O)c(Cl)c1)N1CCCCC1 [A-39, (1-(3-chloro-4-hydroxyphenyl)-1H-benzo[d]imidazol-5-yl)(piperidin-1-yl)methanone] | –
38 | > 7.00 | O=C(c1cnc2c(ccn2-c2cccc(Cl)c2)c1)N1CCCCC1 [A-40] | –
39 | > 7.00 | O=C(c1cnc2c(ccn2-c2ccccn2)c1)N1CCCCC1 [A-41] | –
40 | > 7.00 | O=C(c1cnc2c(ccn2-c2cccnc2)c1)N1CCCCC1 [A-42] | –
41 | > 7.00 | O=C(c1cnc2c(ccn2-c2ccncn2)c1)N1CCCCC1 [A-43] | –
42 | > 7.00 | O=C(c1cnc2c(ccn2-c2cncnc2)c1)N1CCCCC1 [A-44] | –
43 | > 7.00 | O=C(c1cnc2c(ccn2-c2cnccn2)c1)N1CCCCC1 [A-45] | –
44 | > 7.00 | O=C(c1cnc2c(ccn2-c2cscn2)c1)N1CCCCC1 [A-47] | –
45 | > 7.00 | O=C(c1cnc2c(ccn2-c2cn[nH]c2)c1)N1CCCCC1 [A-48] | –
46 | > 7.00 | Cn1cc(-n2ccc3cc(C(=O)N4CCCCC4)cnc32)cn1 [A-49] | –
47 | > 7.00 | O=C(c1cnc2c(ccn2-c2cnccn2)c1)N1CCC(F)CC1 [A-50] | –
48 | > 7.00 | O=C(c1cnc2c(ccn2-c2ccncn2)c1)N1CCC(F)CC1 [A-53] | –
49 | > 7.00 | O=C(c1cnc2c(ccn2-c2ccc(O)nc2)c1)N1CCC(F)CC1 [A-55] | –
50 | > 7.00 | O=C(c1cnc2c(ccn2-c2cccnc2)c1)N1CCC(F)CC1 [A-56] | –
51 | > 7.00 | O=C(c1cnc2c(c1)c(Cl)cn2-c1cccnc1)N1CCC(F)CC1 [A-57] | –
52 | > 7.00 | Cn1cc(-n2ccc3cc(C(=O)N4CCC(F)CC4)cnc32)cn1 [A-58] | –
53 | > 7.00 | Cn1cc(-n2cc(Cl)c3cc(C(=O)N4CCC(F)CC4)cnc32)cn1 [A-59] | –
54 | > 7.00 | O=C(c1cnc2c(c1)c(Cl)cn2-c1cncnc1)N1CCC(F)CC1 [A-60] | –

Row | pIC50 [3] | SMILES | other results
55 | > 7.00 | COc1ccc(-n2ccc3cc(C(=O)N4CCC(F)CC4)cnc32)cn1 [A-61] | –
56 | > 7.00 | O=C(c1cnc2c(c1)ncn2-c1cccc(Cl)c1)N1CCCCC1 [A-62] | –
57 | > 7.00 | COc1ccc(-n2cnc3cc(C(=O)N4CCCCC4)cnc32)cc1 [A-63] | –
58 | > 7.00 | COc1ccc(-n2cnc3cc(C(=O)N4CCC(F)CC4)cnc32)cc1 [A-64] | –
59 | > 7.00 | COc1ccc(-n2cnc3cc(C(=O)N4CCC(F)(F)CC4)cnc32)cc1 [A-65] | –
60 | ≤ 6.00 | COc1ccc(-n2c(NC(C)=O)nc3cc(C(=O)N4CCC(F)CC4)cnc32)cc1 [A-68] | –
61 | > 7.00 | O=C(c1ccc(COc2ccccc2Br)cc1)N1CCCCC1 [A-69] | –
62 | > 7.00 | O=C(c1ccc(COc2ccccc2Cl)cc1)N1CCCCC1 [A-70] | –
63 | > 7.00 | COc1cc(C(=O)N2CCCCC2)ccc1COc1ccccc1Cl [A-71] | –
64 | > 7.00 | O=C(c1ccc(CSc2ccccc2Cl)cc1)N1CCCCC1 [A-72] | –
65 | ≤ 6.00 | O=C(c1ccc(COc2ccccc2Cl)cn1)N1CCC(F)CC1 [A-76] | –
66 | > 7.00 | O=C(c1ccc(COc2ccccc2-c2ccccn2)cc1)N1CCCCC1 [A-77] | –
67 | > 7.00 | O=C(c1ccc(COc2ccccc2-c2cnc[nH]2)cc1)N1CCCCC1 [A-78] | –
68 | > 7.00 | O=C(c1ccc(COc2ccccc2-c2cncs2)cc1)N1CCCCC1 [A-79] | –
69 | > 7.00 | COc1ccccc1C(=O)Nc1ccc(C(=O)N2CCCCC2)cc1 [A-80] | –
70 | ≤ 6.00 | COc1ccccc1C(=O)N(C)c1ccc(C(=O)N2CCCCC2)cc1 [A-81] | –
71 | > 7.00 | O=C(c1ccc2c(ccn2-c2cccc(Cl)c2)c1)N1CCCCC1 [A-87] | –
72 | > 7.00 | O=C(c1ccc2c(c1)c(Cl)cn2-c1cccc(Cl)c1)N1CCCCC1 [A-88] | –
73 | > 7.00 | O=C(c1ccc2c(-c3cccc(Cl)c3)c[nH]c2c1)N1CCCCC1 [A-89, (3-(3-chlorophenyl)-1H-indol-6-yl)(piperidin-1-yl)methanone] | –
74 | > 7.00 | Cn1cc(-c2cccc(Cl)c2)c2ccc(C(=O)N3CCCCC3)cc21 [A-90, (3-(3-chlorophenyl)-1-methyl-1H-indol-6-yl)(piperidin-1-yl)methanone] | –
75 | > 7.00 | O=C(c1ccc2c(c1)CCCN2c1cccc(Cl)c1)N1CCCCC1 [A-91, (1-(3-chlorophenyl)-1,2,3,4-tetrahydroquinolin-6-yl)(piperidin-1-yl)methanone] | –
76 | > 7.00 | O=C(c1ccc2c(cnn2-c2cccc(Cl)c2)c1)N1CCCCC1 [A-93, (1-(3-chlorophenyl)-1H-indazol-5-yl)(piperidin-1-yl)methanone] | –
77 | > 7.00 | O=C(c1ccn2c(-c3cccc(Cl)c3)cnc2c1)N1CCCCC1 [A-94, (3-(3-chlorophenyl)imidazo[1,2-a]pyridin-7-yl)(piperidin-1-yl)methanone] | –
78 | > 7.00 | O=C(c1ccc2c(c1)nnn2-c1cccc(Cl)c1)N1CCCCC1 [A-95, (1-(3-chlorophenyl)-1H-benzo[d][1,2,3]triazol-5-yl)(piperidin-1-yl)methanone] | –
79 | > 7.00 | O=C(c1cnc2c(-c3cccc(Cl)c3)cnn2c1)N1CCCCC1 [A-96, (3-(3-chlorophenyl)pyrazolo[1,5-a]pyrimidin-6-yl)(piperidin-1-yl)methanone] | –
